According to US12570643B2, “3-aryloxy-3-five-membered heteroaryl propylamine compound, and crystal form and use thereof” (Shanghai Leado Pharmatech Co. Ltd., priority 2019, dated 2026):

Experiments:
[1] = molecular target: T1, TRPA1 (Mus musculus, UniProt Q8BLA8); test: TRPA1 inhibitory activity, IonWorks Barracuda (IWB) automatic patch clamp detection; type: cell-based; details: automatic patch clamp
T1 construct: expressed in transfected cells; host or cells: HEK293 cells stably expressing TRPA1
Method: In this example, the compounds prepared in some examples of the present invention (shown in Table 1) were tested for their inhibitory activity on the transient receptor potential channel protein TRPA1. Wherein, compound of formula A (WO2010075353) was used as positive control: […]
Test method by using IonWorks Barracuda (IWB) automatic patch clamp detection: HEK293 cells stably expressing TRPA1 were placed in a 37° C., 5% CO2 incubator and incubated with DMEM medium containing 15 μg/mL Blasticidin S HCl, 200 μg/mL Hygromycin B and 10% FBS serum in a T175 culture flask. When the cell density grew to […], the culture medium was removed, the cells were washed with calcium and magnesium free phosphate buffered saline (PBS), and 3 mL of Trypsin was added and digested for 2 minutes, and 7 mL of culture medium was added to terminate the digestion. […]
Data recording and current amplitude measurement and export were completed by IWB Software (version 2.5.3, Molecular Devices Corporation, Union City, CA). The statistics of the well with a sealing impedance lower than 20 M Ω were not recorded. The original current data was corrected by software, the TRPA1 current amplitude was measured in +100 mV. […] The dose-effect curve and IC50 of compounds were fitted and calculated by GraphPad Prism 5.02 (GraphPad Software, San Diego, CA).

[2] = tested on: HepG2 cells; test: Hepatocyte toxicity (CCK-8 cytotoxicity test); type: cell-based; details: Homo sapiens, 72 hours, read-out: hepatotoxicity (IC50)
Method: HepG-2 and SH-SY5Y cells were prepared and placed in 10 cm dish and incubated at 37° C., 5% CO2 in a cell incubator; the cells were digested with trypsinize, resuspended and then counted. Based on a system of 100 μl/well, 8000 cells were transferred to a 96-well plate. The cells were incubated in a 37° C., 5% CO2 cell incubator for 24 hours; a gradient concentration system of compound I-1 (prepared in Example 2) was prepared, 2 times diluted, the system was 100 μl/well. The supernatant in the 96-well plate cell culture system on the first day was removed, and a fresh prepared drug concentration system was added to the corresponding culture plate wells culturing cells (set up duplicate wells). […] After completion of the culture, the supernatant was removed from the cell culture system of the 96-well plate, 100 μl of detection solution (medium containing 10% CCK-8) was add to each well, and incubated in a cell incubator at 37° C. and 5% CO2 for 1 hour, then taken it out and measured the absorbance at 450 nm with a microplate reader. Data were processed, cytotoxicity was calculated, and IC50 was calculated by GraphPad Prism. […]
A (dosing): absorbance of the well having cells, CCK-8 solution and drug solution
A (blank): absorbance of the well having medium and CCK-8 solution, without cells.
A (0 dosing): absorbance of the well having cells and CCK-8 solution, without drug solution […]

[3] = tested on: acetic acid writhing pain model in mice; test: Acetic acid writhing pain model in mice; type: in vivo, ICR mice
Method: ICR mice, male, 22-25 g, were fasted for food 2 h before administration, but can have water. All ICR mice were weighed and randomly grouped with the number of animals>10 per group. […] The mice were administered via intragastric administration according to the weight of mice. 1.5% acetic acid solution (0.1 ml/10 g) was intraperitoneally injected at 1 hour after administration, and the number of times of visceral pain in each group within 30 minutes was observed, the mice were counted once when the abdomen was concave, the trunk and hind legs were extended and the hips were elevated, and the number of times of these phenomena occurred within 30 min was finally counted.

T1 sequence (Q8BLA8 whole entry): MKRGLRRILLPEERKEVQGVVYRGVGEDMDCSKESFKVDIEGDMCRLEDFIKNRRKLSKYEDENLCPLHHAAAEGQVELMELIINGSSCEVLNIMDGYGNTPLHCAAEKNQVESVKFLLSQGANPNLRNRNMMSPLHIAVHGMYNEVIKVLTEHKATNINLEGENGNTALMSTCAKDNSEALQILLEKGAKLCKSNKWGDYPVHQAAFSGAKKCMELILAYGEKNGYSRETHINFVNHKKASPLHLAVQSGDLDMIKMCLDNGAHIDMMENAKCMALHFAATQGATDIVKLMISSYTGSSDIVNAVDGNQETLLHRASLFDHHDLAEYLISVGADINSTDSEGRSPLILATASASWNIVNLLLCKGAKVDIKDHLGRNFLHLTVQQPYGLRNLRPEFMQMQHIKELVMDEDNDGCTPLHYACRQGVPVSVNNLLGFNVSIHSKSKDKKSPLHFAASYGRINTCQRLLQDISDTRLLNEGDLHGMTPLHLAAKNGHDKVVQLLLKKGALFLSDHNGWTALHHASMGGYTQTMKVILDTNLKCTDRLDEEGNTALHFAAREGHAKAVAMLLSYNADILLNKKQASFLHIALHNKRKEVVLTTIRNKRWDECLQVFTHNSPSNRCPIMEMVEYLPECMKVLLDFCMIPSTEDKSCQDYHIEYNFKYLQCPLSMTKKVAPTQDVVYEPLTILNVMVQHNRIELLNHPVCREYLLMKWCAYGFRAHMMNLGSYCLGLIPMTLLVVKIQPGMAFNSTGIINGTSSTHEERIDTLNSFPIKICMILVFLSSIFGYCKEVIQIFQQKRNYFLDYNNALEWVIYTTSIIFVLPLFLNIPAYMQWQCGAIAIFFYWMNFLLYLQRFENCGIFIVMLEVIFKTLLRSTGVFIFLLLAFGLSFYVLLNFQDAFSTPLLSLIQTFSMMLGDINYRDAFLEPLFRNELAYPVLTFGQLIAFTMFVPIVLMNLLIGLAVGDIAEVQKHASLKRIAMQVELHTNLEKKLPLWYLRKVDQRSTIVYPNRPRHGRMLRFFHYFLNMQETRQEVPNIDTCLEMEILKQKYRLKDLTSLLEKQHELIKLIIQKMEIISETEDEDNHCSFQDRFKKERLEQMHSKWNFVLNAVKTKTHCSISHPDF

## CNCC[C@@H](Oc1cccc2ccoc12)c1cccs1 [Compound I-1, (R)-3-(benzofuran-7-yloxy)-N-methyl-3-(thiophen-2-yl)propan-1-amine]
[1]
  activity ratio (IC50 of compound C2/IC50 of compound I-1): about 6.3
[2]
  IC50: ~114 µM
[3]; 5 mg/kg intragastric
  number of visceral pains lower than normal saline control group: 50%
[3]; Mus musculus, po, intragastric, mice, read-out: half effective dose (ED50) in acetic acid writhing model
  ED50: < 5 mg/kg
